Values joined by “and” are separate entries in the source; they are usually repeats but may differ in a detail not shown here. Equal entries are not always repeated. Where two headings read alike, the source gives them in different places. Marks after values point to notes of the source that are not given here.
Legend:
[1] = system: rat tracheal smooth muscle cells (TSMCs); experiment: MTT assay on rat tracheal smooth muscle cells; assay type: cell-based, Wistar rat; details: for cytotoxicity on rat TSMCs: 0.001 to 100 μM, 24 hours, MTT
Method: Tracheal tissue of Wistar rat (200 g to 250 g) was aseptically obtained and connective tissue around the tracheal tissue was removed. […] Supernatant was discarded after centrifugation, and cells were resuspended in 10 ml fresh medium B and cultured on 10 cm cull culture plate to proceed the subsequent experiments. The third to sixth generations of cells were used in the following experiments. Cell concentration was adjusted to 10^4 cells/ml by using a cell counter. Ten thousand cells (1 ml) were inoculated in 24-well culture plate for 24 hours, and cells were attached thereon. Medium B then was added to culture cells for another 24 hours. Subsequently, different concentrations of drugs were added into wells for continuously incubating for 24 hours in low-oxygen incubator. MTT (methylhiazolyldiphenyl-tetrazolium bromide, 100 μl, 5 mg/ml) was added into the wells for darkly reacted for 3 hours at 37° C. Isopropanol of 500 μl was added to solve the […], formazan, after MTT was withdrawn. After 10 minutes, the supernatant ([…]) was transferred to the new 96-well culture plate to determine the absorbance at 540 nm (OD540) and 630 nm (OD630). The effect of drug on cellular growth was evaluated by the value of “OD540-OD630”.

[2] = for Maximum mean plasma concentration of MSC / Minimum mean plasma concentration of MSC: CD-1 (Crl) mice; for Maximum mean plasma concentration of MSC: 2 min
Method: These pharmaceutical solutions were vortexed and sonicated to be fully dissolved to accomplish the preparation of drugs for i.v. administration.
Male Sprague-Dawley (SD) rats (body weight: 250˜292 g) and male CD-1 (Crl) mice (body weight: 23˜25 g) were purchased from BioLasco Taiwan Co., Ltd., Taiwan, and male ICR mice (body weight: 23˜25 g) were provided from MDS Pharma Services (King of Prussia, Pa., U.S.A.). […] Rats and mice were fasted at least 16 hours prior to oral administration.
Regarding CD-1 (Crl) mice and ICR mice, blood samples were collected by cardiac puncture post i.v. administration for 0, 2, 5, 15, 30 minutes, 1, 1.5, 2, 4, 6, 9, 24 and 27 hours (a total of 13 sampling time points). Blood samples of mice were collected by cardiac puncture before oral administration. Blood samples of three mice were collected at each time point by cardiac puncture post oral administration for 15, 30 minutes, 1, 1.5, 2, 4, 6, 9, 24 and 27 hours (a total of 11 sampling time points). Blood sample (0.5˜0.7 ml) collected by cardiac puncture was placed in a 1.5-ml Eppendorf microcentrifuge tube containing 5 μl of anti-coagulant heparin sodium (5,000 I.U./ml), followed by centrifugation at 12,000 rpm at 4° C. for 10 minutes. The plasma fraction was transferred to a clean microcentrifuge tube and stored at −70° C.
Plasma sample was mixed with acetonitrile and centrifuged, and the supernatant was injected onto an LC column. The pharmacokinetic parameters were calculated from mean plasma concentration by WinNonlin Standard program (version 3.1, Pharsight Corp.).

[3] = Pharmacokinetic analysis of Pulmodil in male SD rats (plasma MSC by LC-MS/MS); assay type: in vivo, male Sprague-Dawley (SD) rats; details: for Maximum mean plasma concentration of MSC / Minimum mean plasma concentration of MSC / Mean plasma concentration of MSC: SD rats
[4] = Mean plasma concentration of MSC after different dosage forms of Pulmodil in SD rats (3 groups, 8 rats per group); assay type: in vivo
Description: First, SD rats were divided into 3 groups, 8 rats per group.

[5] = Pharmacokinetic analysis of MSC in male ICR mice (plasma MSC by LC-MS/MS); assay type: in vivo; details: for Maximum mean plasma concentration of MSC / Minimum mean plasma concentration of MSC / Mean plasma concentration of MSC: ICR mice; for Maximum mean plasma concentration of MSC: 2 min; for Mean plasma concentration of MSC: 2 hours
[6] = Pulmodil-1 single i.v. 2.0 mg/kg, male CD-1 (Crl) mice
[7] = Pulmodil-1 single oral 20.0 mg/kg, male CD-1 (Crl) mice
[8] = Pulmodil single i.v. 2.0 mg/kg, male SD rats
[9] = Pulmodil single oral 18.3 mg/kg, male SD rats
[10] = Pulmodil single sublingual 3.4 mg/kg, male SD rats
[11] = MSC single i.v. 2.0 mg/kg, male ICR mice
[12] = MSC single oral 20.0 mg/kg, male ICR mice

## Cn1c(=O)c2c(ncn2CCN2CCN(c3ccccc3Cl)CC2)n(C)c1=O.O=C(O)CC(O)(CC(=O)O)C(=O)O [Pulmodil-1, 7-[2-[4-(2-chlorobenzene)piperazinyl]ethyl]-1,3-dimethylxanthine.citric acid]
[1]
  cytotoxicity on rat TSMCs: did not show cytotoxicity
[2]; Pulmodil-1 i.v. 2.0 mg/kg, 2 mg/kg
  Maximum mean plasma concentration of MSC: 1425.4 ± 138.2 ng/mL and 1425.4 ng/mL
[2]; Pulmodil-1 i.v. 2.0 mg/kg, 2 hr, 2 mg/kg
  Minimum mean plasma concentration of MSC: 2.7 ± 2.2 ng/mL and 2.7 ng/mL
[2]; Pulmodil-1 oral 20.0 mg/kg, 20 mg/kg
  Maximum mean plasma concentration of MSC: 683.2 ± 187.5 ng/mL and 683.2 ng/mL
[2]; Pulmodil-1 oral 20.0 mg/kg, 4 hr
  Minimum mean plasma concentration of MSC: 11.9 ng/mL
[2]; [6]
  AUC(0-inf): 0.3713 µg·h/mL
  Cl: 5.4 L/h/kg
  Cmax: 1.785 µg/mL
  Vss: 1.4 L/kg
  Vz: 2.0 L/kg
[2]; Pulmodil-1 single i.v. 2.0 mg/kg, male CD-1 (Crl) mice, determined between 0.5 and 2 hours
  t1/2: 0.3 h
[2]; [7]
  AUC(0-inf): 0.3793 µg·h/mL
  Cmax: 0.683 µg/mL
  MAT (MRTPO − MRTIV): 42 min
  Tmax: 18 min
[2]; Pulmodil-1 single oral 20.0 mg/kg, male CD-1 (Crl) mice, 20 mg/kg
  Bioavailability: 10% and 10.2%
[2]; Pulmodil-1 single oral 20.0 mg/kg, male CD-1 (Crl) mice, determined between 0.5 to 4 hours
  t1/2: 1.0* hr

## Cl.Cn1c(=O)c2c(ncn2CCN2CCN(c3ccccc3Cl)CC2)n(C)c1=O [Pulmodil, 7-[2-[4-(2-chlorobenzene)piperazinyl]ethyl]-1,3-dimethylxanthine.HCl]
[1]
  cytotoxicity on rat TSMCs: did not show cytotoxicity
[1]; high concentrations (10 and 100 μM), rat TSMCs
  cell survival rate: ~100%
[3]; Pulmodil i.v. 2.0 mg/kg, 2 min, 2 mg/kg
  Maximum mean plasma concentration of MSC: 1263.1 ± 181.4 ng/mL and 1263.1 ng/mL
[3]; Pulmodil i.v. 2.0 mg/kg, 6 hr, 2 mg/kg
  Minimum mean plasma concentration of MSC: 0.7 ± 0.3 ng/mL and 0.7 ng/mL
[3]; Pulmodil oral 20 mg/kg, 5 min
  Maximum mean plasma concentration of MSC: 1294.1 ng/mL
[3]; Pulmodil oral 20 mg/kg, 9 hr
  Minimum mean plasma concentration of MSC: 5.9 ng/mL
[3]; Pulmodil oral 20 mg/kg, 24 hr (text: 24- and 27-hour), 20 mg/kg
  Mean plasma concentration of MSC: 0.0002 ± 0.0001 µg/mL and 0.0002 µg/mL
[3]; Pulmodil oral 20 mg/kg, within 2 minutes
  Mean plasma concentration of MSC: 0.8797 µg/mL
[3]; [8]
  AUC(0-inf): 0.608 µg·h/mL
  Cl: 3.1 L/h/kg
  MRT: 36 min
  Vss: 1.8 L/kg
  Vz: 3.4 L/kg
  t1/2: 48 min
[3]; [9]
  AUC(0-inf): 1.142 µg·h/mL
  Cmax: 1.39 µg/mL
  MAT (MRTPO − MRTIV): 66 min
  MRT: 102 min
  Tmax: 6 min
  t1/2: 198 min
[3]; [10]
  AUC(0-inf): 0.042 µg·h/mL
  Bioavailability: 3.7%
  Cmax: 0.027 µg/mL
  MAT (MRTSL − MRTIV): 108 min
  MRT: 144 min
  Tmax: 6 min
  t1/2: 138 min
[3]; Pulmodil sublingual 3.6 mg/kg, 10 min
  Maximum mean plasma concentration of MSC: 25.9 ± 5.5 ng/mL and 25.9 ng/mL
[3]; Pulmodil sublingual 3.6 mg/kg, 9 hr
  Minimum mean plasma concentration of MSC: 0.7 ng/mL
[3]; Pulmodil sublingual 3.6 mg/kg, within 2 minutes
  Mean plasma concentration of MSC: 0.0225 ± 0.0041 µg/mL
[3]; route not stated, given as fraction
  Bioavailability: 0.2
[4]; Pulmodil i.v. 2.0 mg/kg, 2 minutes
  highest mean plasma concentration of MSC: 1263.12 ± 181.44 ng/mL
[4]; Pulmodil i.v. 2.0 mg/kg, 5 minutes
  highest mean plasma concentration of MSC: 1171.077 ± 222.16 ng/mL
[4]; Pulmodil oral 20 mg/kg, 5 minutes
  highest mean plasma concentration of MSC: 954.32 ± 332.81 ng/mL
[4]; Pulmodil oral 20 mg/kg, 10 minutes
  highest mean plasma concentration of MSC: 806.85 ± 160.05 ng/mL
[4]; Pulmodil sublingual 3.6 mg/kg, 2 minutes
  highest mean plasma concentration of MSC: 22.48 ± 4.09 ng/mL
[4]; Pulmodil sublingual 3.6 mg/kg, 30 minutes
  highest mean plasma concentration of MSC: 18.24 ± 5.70 ng/mL
[2]; [6]
  Cmax: 1.785 µg/mL

## Cn1c(=O)c2c(ncn2CCN2CCN(c3ccccc3Cl)CC2)n(C)c1=O [MSC]
[1]
  cytotoxicity on rat TSMCs: did not show cytotoxicity
[5]; MSC i.v. 2.0 mg/kg, 2 mg/kg
  Maximum mean plasma concentration of MSC: 447.76 ± 50.30 ng/mL and 447.76 ng/mL
[5]; MSC i.v. 2.0 mg/kg, 24 hr
  Minimum mean plasma concentration of MSC: 0.39 ng/mL
[5]; MSC i.v.
  Mean plasma concentration of MSC: 0.00482 ± 0.00198 µg/mL
[5]; MSC oral 20.0 mg/kg, 20 mg/kg
  Maximum mean plasma concentration of MSC: 205.92 ± 56.94 ng/mL and 205.92 ng/mL
[5]; MSC oral 20.0 mg/kg, 9 hr, 20 mg/kg
  Minimum mean plasma concentration of MSC: 3.74 ± 1.62 ng/mL and 3.74 ng/mL
[5]; MSC oral
  Mean plasma concentration of MSC: 0.09426 ± 0.04036 µg/mL
[5]; [11]
  AUC(0-inf): 0.2366 µg·h/mL
  C(0): 0.5158 µg/mL
  Cl: 8.454 L/h/kg
  MRT: 120 min
  Vss: 17.2 L/kg
  Vz: 79.0 L/kg
[5]; MSC single i.v. 2.0 mg/kg, male ICR mice, determined between 9 and 24 hours
  t1/2: 6.5** hr
[5]; [12]
  AUC(0-inf): 0.4625 µg·h/mL
  Bioavailability: 19.5%
  MAT (MRTPO − MRTIV): 48 min
  MRT: 168 min
  Tmax: 15 min
[5]; MSC single oral 20.0 mg/kg, male ICR mice, 20 mg/kg
  Cmax: 0.2059 µg/mL
[5]; MSC single oral 20.0 mg/kg, male ICR mice, determined between 4 to 9 hours
  t1/2: 1.2** hr

— patent US20100280040A1 (KAOHSIUNG MEDICAL UNIVERSITY, priority 2009, published 2010)
